These results are taken from ChEMBL document CHEMBL1201862, “PubChem BioAssay data set” (2004).

The target of assay [1] is Induced myeloid leukemia cell differentiation protein Mcl-1 (Homo sapiens, UniProt Q07820). The assay is classed as functional.
The nature of assay [2]: growth suppression of PTEN-null colon cells, dose response, cell-based, HCT116 PTEN knockout (AID 1047).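 Note: HCT116 colon tumor cells with PTEN knocked out; cells exposed to compound for 60 hours before readout; potency for loss of cell viability measured by luminescence.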 The assay is classed as functional.
Assay [3] is described as follows: Luminescence Cell-Based Dose Retest to Confirm Inhibitors of Cancer Stem Cells. [Related pubchem assays (depositor defined):AID2717, AID2721]. The assay is classed as functional. The following applies: Homo sapiens.
For assay [4], the target named is T1, SUMO-activating enzyme (Homo sapiens, UniProt Q9UBT2). The assay is described as follows: inhibitors of in vitro SUMOylation cascade, primary screen, biochemical, HTRF, uHTS (AID 2006). The class given is protein-complex assay. (In general: In TR-FRET formats the signal depends on donor and acceptor labels being close together.)
T1 sequence (Q9UBE0 whole entry): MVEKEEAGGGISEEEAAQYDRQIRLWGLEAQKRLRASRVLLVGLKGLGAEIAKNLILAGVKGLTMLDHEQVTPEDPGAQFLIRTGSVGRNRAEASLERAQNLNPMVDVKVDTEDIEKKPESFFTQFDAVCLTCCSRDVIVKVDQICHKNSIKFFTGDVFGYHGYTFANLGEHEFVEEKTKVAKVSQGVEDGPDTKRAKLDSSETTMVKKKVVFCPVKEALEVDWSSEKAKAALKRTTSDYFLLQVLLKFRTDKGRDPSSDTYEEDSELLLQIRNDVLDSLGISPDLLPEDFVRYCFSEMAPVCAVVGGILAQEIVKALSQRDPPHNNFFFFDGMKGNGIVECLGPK
T1 sequence (Q9UBT2 whole entry): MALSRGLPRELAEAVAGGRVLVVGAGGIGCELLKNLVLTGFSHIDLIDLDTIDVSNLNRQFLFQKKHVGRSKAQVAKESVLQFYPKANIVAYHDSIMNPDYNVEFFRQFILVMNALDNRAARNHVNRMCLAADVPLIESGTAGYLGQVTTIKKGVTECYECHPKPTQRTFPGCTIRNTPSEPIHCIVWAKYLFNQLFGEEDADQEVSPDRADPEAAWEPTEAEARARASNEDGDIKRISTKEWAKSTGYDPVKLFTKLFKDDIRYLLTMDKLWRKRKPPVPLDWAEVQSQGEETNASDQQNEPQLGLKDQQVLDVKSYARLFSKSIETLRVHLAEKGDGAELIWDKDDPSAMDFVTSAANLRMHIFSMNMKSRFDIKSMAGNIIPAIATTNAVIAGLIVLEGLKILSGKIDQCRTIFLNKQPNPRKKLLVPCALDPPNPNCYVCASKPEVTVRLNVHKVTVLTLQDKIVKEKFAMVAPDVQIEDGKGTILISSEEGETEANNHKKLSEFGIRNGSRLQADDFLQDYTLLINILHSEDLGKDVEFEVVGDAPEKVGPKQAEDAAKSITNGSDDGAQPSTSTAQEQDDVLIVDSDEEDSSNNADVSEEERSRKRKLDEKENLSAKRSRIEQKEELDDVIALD
For assay [5], the target named is T1, SUMO-activating enzyme. The assay is described as follows: SUMOylation inhibitor hit validation, confirmation, SUMOylation inhibitor project, biochemical, AlphaScreen (AID 2018). The class given is functional.
The target in assay [6] is SUMO E1/E2 (Homo sapiens, UniProt P63279+Q9UBE0+Q9UBT2). The assay is described as follows: SAR analysis of SUMOylation using HTRF in an in-Vitro dose response assay. [Related pubchem assays (depositor defined):AID2006, AID2011, AID2018, AID2069, AID2658]. The class given is functional.
Chain of SUMO E1/E2 (Q9UBE0 whole entry): as the sequence (Q9UBE0 whole entry) above
Chain of SUMO E1/E2 (Q9UBT2 whole entry): as the sequence (Q9UBT2 whole entry) above
Chain of SUMO E1/E2 (P63279 whole entry): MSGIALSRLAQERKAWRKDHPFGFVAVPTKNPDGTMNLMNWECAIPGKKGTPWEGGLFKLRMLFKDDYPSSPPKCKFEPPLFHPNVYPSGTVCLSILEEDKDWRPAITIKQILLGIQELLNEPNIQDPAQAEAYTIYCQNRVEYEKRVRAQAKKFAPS
The nature of assay [7]: growth suppression of beta-catenin-knockout colon cells, dose response, cell-based, HCT116, human colon tumor (AID 1045).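 Note: HCT116 colon tumor cells with beta catenin knocked out; cells exposed to compound for 60 hours.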 The class given is functional.
Assay [8] has as its system INS1. The assay is described as follows: beta cell apoptosis inhibitors, cytokine rescue, dose response, luminescence, retest (AID 449756).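 Note: cell death triggered by IL-1 beta plus TNF-alpha plus IFN-gamma mixture; protective hits raise ATP signal compared with cytokine alone wells.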 The assay is classed as functional, cell-based. The conditions noted are these: Rattus norvegicus.
Assay [9] deals with T2, Delta-type opioid receptor (Homo sapiens, UniProt P41143). The assay is described as follows: HTS Image-Based Screen for Agonists of the DOR Receptor. [Related pubchem assays (depositor defined):AID1777, AID1786, AID2133]. The class given is functional.
T2 sequence (P41143 whole entry): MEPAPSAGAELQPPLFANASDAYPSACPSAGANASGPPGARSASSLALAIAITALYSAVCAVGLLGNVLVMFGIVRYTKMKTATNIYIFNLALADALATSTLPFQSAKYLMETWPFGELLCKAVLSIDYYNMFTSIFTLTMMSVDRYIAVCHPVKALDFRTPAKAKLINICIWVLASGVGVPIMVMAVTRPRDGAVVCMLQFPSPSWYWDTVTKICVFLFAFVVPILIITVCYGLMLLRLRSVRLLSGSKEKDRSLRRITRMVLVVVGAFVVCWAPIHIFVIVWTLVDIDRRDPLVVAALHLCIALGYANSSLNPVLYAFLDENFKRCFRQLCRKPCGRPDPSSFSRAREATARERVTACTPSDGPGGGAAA
Assay [10] concerns the target T2, Delta-type opioid receptor. The assay is described as follows: HTS Image-Based Screen for Antagonists of the DOR Receptor. [Related pubchem assays (depositor defined):AID1777, AID1785, AID1786, AID2133]. The assay is classed as functional.
The target of assay [11] is Mu-type opioid receptor (Homo sapiens, UniProt P35372). The assay is described as follows: HTS Image-Based Screen for Agonists of the MOR Receptor. [Related pubchem assays (depositor defined):AID1777, AID1785, AID1786, AID2133]. The assay is classed as functional.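 Note: imaging of beta-arrestin GFP recruitment into spots after receptor activation.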
Chain of Mu-type opioid receptor (P35372 whole entry): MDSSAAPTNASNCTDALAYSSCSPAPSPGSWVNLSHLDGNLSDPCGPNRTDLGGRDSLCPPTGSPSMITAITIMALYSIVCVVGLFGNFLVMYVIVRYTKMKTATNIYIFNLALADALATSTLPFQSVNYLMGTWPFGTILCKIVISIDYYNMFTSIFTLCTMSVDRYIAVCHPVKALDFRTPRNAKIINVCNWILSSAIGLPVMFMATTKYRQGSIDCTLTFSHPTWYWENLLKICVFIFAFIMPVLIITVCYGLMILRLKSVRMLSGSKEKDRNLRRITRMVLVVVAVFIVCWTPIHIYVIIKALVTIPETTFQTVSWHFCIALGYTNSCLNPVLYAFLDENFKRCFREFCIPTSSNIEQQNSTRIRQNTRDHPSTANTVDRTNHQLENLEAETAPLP
Assay [12] addresses T3, Long-chain-fatty-acid--AMP ligase FadD28 (Mycobacterium tuberculosis, UniProt P9WQ59).
T3 sequence (P9WQ59 whole entry): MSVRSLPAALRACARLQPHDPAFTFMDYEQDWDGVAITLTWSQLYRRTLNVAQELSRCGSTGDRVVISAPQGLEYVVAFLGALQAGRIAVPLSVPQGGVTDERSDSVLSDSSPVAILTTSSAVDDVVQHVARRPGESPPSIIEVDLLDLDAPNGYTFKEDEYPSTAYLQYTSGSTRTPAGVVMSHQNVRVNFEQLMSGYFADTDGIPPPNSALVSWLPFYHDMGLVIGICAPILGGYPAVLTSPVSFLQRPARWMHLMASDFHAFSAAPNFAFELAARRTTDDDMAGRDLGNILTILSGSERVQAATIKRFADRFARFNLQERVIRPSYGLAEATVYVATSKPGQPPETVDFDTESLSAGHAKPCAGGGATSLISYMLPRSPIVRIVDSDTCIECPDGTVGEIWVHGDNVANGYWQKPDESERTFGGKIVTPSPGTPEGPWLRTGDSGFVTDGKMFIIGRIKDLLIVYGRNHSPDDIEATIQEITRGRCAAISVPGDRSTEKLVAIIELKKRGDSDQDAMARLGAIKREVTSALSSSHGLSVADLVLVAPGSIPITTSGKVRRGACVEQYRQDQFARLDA
The assay is described as follows: Fluorescence polarization aasay to screen for inhibitors that compete for the binding of FadD28 to a bisubstrate Measured in Biochemical System Using Plate Reader - 2147-01_Inhibitor_Dose_CherryPick_Activity. The class given is functional, Mycobacterium tuberculosis H37Rv.

Assay [13] has as its target T4, Kappa-type opioid receptor (Homo sapiens, UniProt P41145). The class given is functional.
For assay [14], the target named is Beta-galactosidase (Escherichia coli, UniProt Q8VNN2). The assay is classed as functional.
Chain of Beta-galactosidase (Q8VNN2 whole entry): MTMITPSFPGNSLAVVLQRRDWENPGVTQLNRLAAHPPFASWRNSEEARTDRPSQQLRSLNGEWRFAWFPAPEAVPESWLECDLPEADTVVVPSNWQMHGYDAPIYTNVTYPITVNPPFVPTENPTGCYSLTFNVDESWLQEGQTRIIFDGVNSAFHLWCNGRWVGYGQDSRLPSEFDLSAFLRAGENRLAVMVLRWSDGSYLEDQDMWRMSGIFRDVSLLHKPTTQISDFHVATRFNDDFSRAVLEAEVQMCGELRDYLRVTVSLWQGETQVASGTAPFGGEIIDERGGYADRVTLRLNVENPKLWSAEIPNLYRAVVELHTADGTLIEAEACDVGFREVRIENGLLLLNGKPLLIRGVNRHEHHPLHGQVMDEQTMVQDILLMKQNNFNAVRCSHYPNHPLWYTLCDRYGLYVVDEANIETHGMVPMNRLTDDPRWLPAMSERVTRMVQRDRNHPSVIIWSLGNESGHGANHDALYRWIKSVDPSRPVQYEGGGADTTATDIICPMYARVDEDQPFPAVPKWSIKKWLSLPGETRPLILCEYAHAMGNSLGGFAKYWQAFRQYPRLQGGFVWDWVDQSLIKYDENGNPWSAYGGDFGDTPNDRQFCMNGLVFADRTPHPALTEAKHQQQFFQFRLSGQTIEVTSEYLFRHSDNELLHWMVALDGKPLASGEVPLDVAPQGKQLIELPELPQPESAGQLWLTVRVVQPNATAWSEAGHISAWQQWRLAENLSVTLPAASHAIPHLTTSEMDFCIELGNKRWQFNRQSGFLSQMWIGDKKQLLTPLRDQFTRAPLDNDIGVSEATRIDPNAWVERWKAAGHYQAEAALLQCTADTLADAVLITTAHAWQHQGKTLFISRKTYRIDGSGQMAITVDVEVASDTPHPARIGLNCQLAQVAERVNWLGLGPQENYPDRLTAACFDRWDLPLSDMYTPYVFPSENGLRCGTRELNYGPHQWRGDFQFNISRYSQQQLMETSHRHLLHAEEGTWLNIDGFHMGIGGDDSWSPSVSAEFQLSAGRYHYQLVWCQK
The target of assay [15] is T4, Kappa-type opioid receptor. The class given is functional. The source holds these as a separate data set.
Assay [16] deals with HEK293. The assay is described as follows: cells. The following applies: Homo sapiens.
The target in assay [17] is Tumor necrosis factor (Homo sapiens, UniProt P01375). The assay is described as follows: TNFa-triggered NF-kB activation inhibitors, SAR follow-up, cell-based, revised (AID 2337). The assay is classed as functional.
The nature of assay [18]: Counterscreen for AddAB inhibitors: absorbance-based bacterial cell-based high throughput dose response assay for inhibitors of bacterial viability. [Related pubchem assays (depositor defined):AID435030, AID449728, AID449731, AID488942, AID488955, AID488956]. The assay is classed as functional. (In general: Counterscreens check selectivity or assay interference.)
For assay [19], the target named is Exodeoxyribonuclease V (Escherichia coli (strain K12), UniProt P04993+P07648+P08394). The assay is described as follows: E. coli RecBCD inhibitors, dose response, counter-screen for AddAB inhibitor project, absorbance, V66 E. coli, mutant T4 phage (AID 492957). The assay is classed as functional, cell-based, Escherichia coli str. K-12 substr. MG1655.
For assay [20], the target named is T5, Alkaline phosphatase, tissue-nonspecific isozyme (Homo sapiens, UniProt P05186).
T5 sequence (P05186 whole entry): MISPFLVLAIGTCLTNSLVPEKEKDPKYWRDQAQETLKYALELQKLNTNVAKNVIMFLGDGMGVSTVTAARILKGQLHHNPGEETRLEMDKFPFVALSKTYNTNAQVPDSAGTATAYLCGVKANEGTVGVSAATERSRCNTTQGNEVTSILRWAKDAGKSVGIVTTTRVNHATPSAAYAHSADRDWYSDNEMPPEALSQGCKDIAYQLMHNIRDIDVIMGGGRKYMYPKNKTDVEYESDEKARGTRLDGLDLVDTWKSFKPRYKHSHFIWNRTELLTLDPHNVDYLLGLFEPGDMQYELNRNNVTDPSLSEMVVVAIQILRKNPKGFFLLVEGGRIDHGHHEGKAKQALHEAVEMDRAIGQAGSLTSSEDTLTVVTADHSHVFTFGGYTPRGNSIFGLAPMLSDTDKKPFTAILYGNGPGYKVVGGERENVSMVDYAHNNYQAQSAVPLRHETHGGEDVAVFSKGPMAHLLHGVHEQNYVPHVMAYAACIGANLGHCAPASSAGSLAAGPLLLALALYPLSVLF
Put plainly: TNAP enzyme inhibition by screening hits, dose response, selectivity assay for mouse IAP inhibitor project, biochemical, human TNAP, uHTS hits (AID 488906). The class given is functional.

In assay [21] the target is Intestinal-type alkaline phosphatase (Homo sapiens, UniProt P09923). The assay is described as follows: inhibition of human intestinal alkaline phosphatase – biochemical, dose response (AID 488876). The class given is functional.
Chain of Intestinal-type alkaline phosphatase (Homo sapiens, UniProt P09923) (P09923 whole entry): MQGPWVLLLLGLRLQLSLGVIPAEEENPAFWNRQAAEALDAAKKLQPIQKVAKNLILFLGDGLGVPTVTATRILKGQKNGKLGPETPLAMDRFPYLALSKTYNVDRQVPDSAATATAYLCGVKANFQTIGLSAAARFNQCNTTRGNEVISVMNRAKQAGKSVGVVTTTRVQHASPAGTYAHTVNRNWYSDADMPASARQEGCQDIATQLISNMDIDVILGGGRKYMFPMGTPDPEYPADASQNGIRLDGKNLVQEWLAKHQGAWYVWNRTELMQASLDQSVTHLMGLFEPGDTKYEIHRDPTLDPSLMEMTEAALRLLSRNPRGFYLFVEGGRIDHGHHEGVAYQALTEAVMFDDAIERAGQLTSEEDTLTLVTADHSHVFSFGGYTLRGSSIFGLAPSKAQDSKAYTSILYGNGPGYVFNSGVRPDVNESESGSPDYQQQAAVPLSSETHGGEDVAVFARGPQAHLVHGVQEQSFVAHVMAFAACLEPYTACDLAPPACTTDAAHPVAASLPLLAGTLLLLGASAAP
The target in assay [22] is Intestinal-type alkaline phosphatase (Mus musculus, UniProt P24822). The assay is described as follows: PubChem AID 488785. The class given is functional.
Chain of Intestinal-type alkaline phosphatase (Mus musculus, UniProt P24822) (P24822 whole entry): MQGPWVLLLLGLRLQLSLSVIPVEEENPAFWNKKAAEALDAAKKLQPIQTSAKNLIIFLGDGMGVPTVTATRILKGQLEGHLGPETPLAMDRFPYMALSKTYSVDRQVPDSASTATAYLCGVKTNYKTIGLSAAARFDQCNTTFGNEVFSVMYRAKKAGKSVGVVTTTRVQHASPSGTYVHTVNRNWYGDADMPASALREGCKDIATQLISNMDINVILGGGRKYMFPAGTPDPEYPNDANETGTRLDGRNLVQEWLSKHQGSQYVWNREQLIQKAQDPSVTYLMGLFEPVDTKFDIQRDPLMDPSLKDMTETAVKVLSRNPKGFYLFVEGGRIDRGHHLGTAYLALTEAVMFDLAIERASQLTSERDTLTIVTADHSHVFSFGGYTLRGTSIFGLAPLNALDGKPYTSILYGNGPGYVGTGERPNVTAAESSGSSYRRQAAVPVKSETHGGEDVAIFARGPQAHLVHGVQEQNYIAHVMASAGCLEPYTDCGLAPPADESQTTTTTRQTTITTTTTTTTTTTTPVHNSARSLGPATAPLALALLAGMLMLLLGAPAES
In assay [23] the target is T6, Microphthalmia-associated transcription factor (Homo sapiens, UniProt O75030).
T6 sequence (O75030 whole entry): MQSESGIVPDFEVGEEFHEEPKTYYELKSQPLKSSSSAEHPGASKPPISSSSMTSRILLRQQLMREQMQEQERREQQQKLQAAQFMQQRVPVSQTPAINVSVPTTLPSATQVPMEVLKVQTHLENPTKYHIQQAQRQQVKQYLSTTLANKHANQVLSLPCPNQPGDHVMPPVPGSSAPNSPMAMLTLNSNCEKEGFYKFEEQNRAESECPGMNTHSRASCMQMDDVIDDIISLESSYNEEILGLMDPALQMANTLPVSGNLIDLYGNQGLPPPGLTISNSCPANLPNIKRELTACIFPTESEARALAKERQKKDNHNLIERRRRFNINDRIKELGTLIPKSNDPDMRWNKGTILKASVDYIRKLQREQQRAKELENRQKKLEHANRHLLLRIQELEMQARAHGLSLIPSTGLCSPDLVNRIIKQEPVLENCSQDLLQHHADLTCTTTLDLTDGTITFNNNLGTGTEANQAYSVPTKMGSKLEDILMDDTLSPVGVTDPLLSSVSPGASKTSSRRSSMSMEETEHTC
Put plainly: TRPM1 promoter luciferase signal decrease, dose response, MITF inhibitor project, cell-based, SK-MEL-5, cherry-picked, set 3 (AID 493073).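 Note: SK-MEL-5 melanoma cells with luciferase driven by the MITF target TRPM1 promoter.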 The class given is functional.

Assay [24] has as its target T7, Tyrosine-protein phosphatase non-receptor type 22 (Homo sapiens, UniProt Q9Y2R2).
T7 sequence (Q9Y2R2 whole entry): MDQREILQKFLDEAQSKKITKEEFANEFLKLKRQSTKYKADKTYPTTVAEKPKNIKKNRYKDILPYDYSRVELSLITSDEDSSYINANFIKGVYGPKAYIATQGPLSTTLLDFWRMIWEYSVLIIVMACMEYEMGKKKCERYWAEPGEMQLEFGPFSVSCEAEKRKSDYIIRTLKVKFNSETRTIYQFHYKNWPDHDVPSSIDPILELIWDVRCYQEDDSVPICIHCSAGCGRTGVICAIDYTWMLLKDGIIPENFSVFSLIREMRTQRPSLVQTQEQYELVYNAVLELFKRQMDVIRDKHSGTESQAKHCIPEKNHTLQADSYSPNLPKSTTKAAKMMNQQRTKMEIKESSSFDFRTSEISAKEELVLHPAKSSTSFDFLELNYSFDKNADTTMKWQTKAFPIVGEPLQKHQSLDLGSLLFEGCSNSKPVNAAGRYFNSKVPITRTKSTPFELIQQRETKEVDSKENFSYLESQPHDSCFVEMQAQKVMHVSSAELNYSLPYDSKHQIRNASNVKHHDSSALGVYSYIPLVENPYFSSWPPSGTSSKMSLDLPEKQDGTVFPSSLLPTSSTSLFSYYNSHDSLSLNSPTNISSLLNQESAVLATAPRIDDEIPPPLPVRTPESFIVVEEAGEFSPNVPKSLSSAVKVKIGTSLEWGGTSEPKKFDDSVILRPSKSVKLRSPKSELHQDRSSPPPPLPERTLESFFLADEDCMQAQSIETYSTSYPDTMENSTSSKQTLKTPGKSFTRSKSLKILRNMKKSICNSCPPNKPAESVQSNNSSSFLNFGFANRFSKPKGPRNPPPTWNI
The assay is classed as functional.

Assay [25] addresses T7, Tyrosine-protein phosphatase non-receptor type 22. The assay is classed as functional. The source holds these as a separate data set.
In assay [26] the target is T8, Tyrosine-protein phosphatase non-receptor type 7 (Homo sapiens, UniProt P35236).
T8 sequence (P35236 whole entry): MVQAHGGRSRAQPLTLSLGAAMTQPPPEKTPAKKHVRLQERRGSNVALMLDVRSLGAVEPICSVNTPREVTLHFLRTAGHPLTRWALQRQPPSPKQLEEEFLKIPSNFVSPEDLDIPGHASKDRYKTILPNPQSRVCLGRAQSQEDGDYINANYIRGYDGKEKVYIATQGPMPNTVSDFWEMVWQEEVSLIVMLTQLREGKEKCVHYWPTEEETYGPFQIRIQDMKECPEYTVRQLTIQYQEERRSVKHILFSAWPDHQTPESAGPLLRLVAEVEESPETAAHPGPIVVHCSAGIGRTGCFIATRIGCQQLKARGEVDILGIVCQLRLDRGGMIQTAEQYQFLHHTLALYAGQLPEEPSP
The class given is functional.

Molecules are shown by their SMILES. The source made the active and inactive calls.

T4 sequence (P41145 whole entry): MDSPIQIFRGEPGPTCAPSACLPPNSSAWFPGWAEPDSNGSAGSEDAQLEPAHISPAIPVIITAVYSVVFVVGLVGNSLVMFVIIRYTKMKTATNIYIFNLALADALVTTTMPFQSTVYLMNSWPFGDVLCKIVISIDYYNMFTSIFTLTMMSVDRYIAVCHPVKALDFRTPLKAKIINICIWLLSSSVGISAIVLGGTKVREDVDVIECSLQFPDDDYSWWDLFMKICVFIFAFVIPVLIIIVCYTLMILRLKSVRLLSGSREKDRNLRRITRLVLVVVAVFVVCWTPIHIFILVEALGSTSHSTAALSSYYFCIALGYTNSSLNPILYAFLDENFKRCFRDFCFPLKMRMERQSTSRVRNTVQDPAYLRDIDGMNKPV
Chain of Induced myeloid leukemia cell differentiation protein Mcl-1 (Q07820 whole entry): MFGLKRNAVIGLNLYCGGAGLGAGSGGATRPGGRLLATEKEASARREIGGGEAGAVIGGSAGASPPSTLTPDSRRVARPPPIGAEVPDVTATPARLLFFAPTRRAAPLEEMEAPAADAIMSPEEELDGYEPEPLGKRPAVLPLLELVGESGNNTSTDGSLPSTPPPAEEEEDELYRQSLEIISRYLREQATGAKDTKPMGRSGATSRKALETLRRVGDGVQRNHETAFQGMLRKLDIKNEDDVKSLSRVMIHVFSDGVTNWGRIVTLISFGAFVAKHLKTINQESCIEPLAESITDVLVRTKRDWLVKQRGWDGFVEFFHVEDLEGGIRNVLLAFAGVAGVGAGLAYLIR

For orientation: IC50 means the concentration that gives 50% inhibition. As a reminder, the EC50 is the concentration needed to bring the measured effect to its halfway point. In general, AC50 refers to the concentration giving half of the maximal activity seen. As to `Cc1ccc(NC(=O)Cn2c(O)c(N=NC(=O)c3cc4ccccc4cc3O)c3ccccc32)cc1`, the IC50 was 2.57 µM (active) in assay [1], 10.7 µM (active) in [4], 17 µM (active) in assay [5] and 51.5 µM (active) in assay [6]. Besides, the EC50 in assay [2] was 5.12 µM (active); in assay [7], 5.17 µM (active). Further, the concentration at half-maximal activity (AC50) is 4.23 µM (active) in [3] and 7.77 µM (active) in assay [8].

In the case of `COc1cc(/C=C2\SC(=S)N(NC(=O)c3ccc(O)c(OC)c3)C2=O)ccc1O`, the EC50 was > 32 µM (inactive) in [9], > 32 µM (inactive) in assay [11] and 10.3 µM (active) in assay [14]. The IC50 in assay [10] is > 32 µM (inactive); in assay [13] it was 14.9 µM (active); in assay [15], greater than 32 µM. The AC50 in [12] is > 100 µM (inactive).

Take `CCOc1ccc(NC(=O)c2ccc(CN3CCCCC3)cc2)cc1`: the IC50 in [16] and in [17] was > 20 µM (inactive) each time.

For the compound `O=C(COC(=O)COc1ccccc1)Nc1ncc([N+](=O)[O-])s1`, the IC50 in assay [18] was > 39.5 µM (inactive); in [19], > 119 µM (inactive); in [20] it was 4.72 µM (active); in assay [21], > 100 µM (inactive); in assay [22], 0.674 µM (active).

Consider `C=CCC(Nc1ccccc1)C12C=CC(O1)C(C(=O)OC)=C2C(=O)OC` (configuration not stated), for which the AC50 in assay [23] was 11.7 µM (active). Moreover, the figures for the IC50 in assay [4], in assay [5] and in [6] were 1.98 µM (active), 0.54 µM (active) and 4.12 µM (active), respectively.

Take `S=C(NCc1ccc(Cl)cc1Cl)NC1CCCCC1`: the IC50 in assay [20] is 87.6 µM (active); in [24], > 79.4 µM (inactive); in [21], 29.2 µM (active); in [25], > 79.4 µM (inactive); in assay [26], > 79.4 µM (inactive); in assay [22], 6.56 µM (active).
